Source: patent US11344548B2, “Analogs of 3,5-dihydroxypentanoate for bone formation” (KAOHSIUNG MEDICAL UNIVERSITY, priority 2015, dated 2022)
Where two headings read alike, the source gives them in different places.

Experiments:
zebrafish [1] = assay: Bone-targeting of test compounds in zebrafish; format: in vivo; conditions: living zebrafish, 3.2 μM, fluorescence microscope, FIG. 9(a), 9(b)
Protocol: Calcein, which is a known staining dye for the mineral in animals, was used as a positive control group.
The AB strain of wild-type zebrafish was used for this study. Embryos were collected after natural spawning, staged according to standard criteria, and raised synchronously at 28.5° C. in Hank's buffer (13.7 mM NaCl, 540 M KCl, 25 μM Na2HPO4, 44 μM KH2PO4, 300 μM CaCl2, 100 μM MgSO4, 420 μM NaHCO3, pH 7.4). Zebrafish larvae at 2 dpf were exposed to test compounds (3.2 μM) for 3 days in a 24-well plate. At 7 dpf, the fish were anesthetized using tricaine-methanesulfonate (MS 222) and mounted on depression glass slides with methyl-cellulose (3%), and the images of the zebrafish were acquired using a Leica DM-6000 CS fluorescence microscope (Leica Instruments Inc., Wetzlar, Germany). All of the images were acquired using a SPOT Xplorer Digital camera (Diagnostic Instruments, Inc., Sterling Heights, Mich., USA). Each image was taken at 60-sec.

HMG-CoA reductase = target: T1, HMG-CoA reductase (Homo sapiens, UniProt P04035); assay: HMG-CoA reductase inhibition; format: biochemical; conditions: for effective inhibitory concentration compared with simvastatin: HMG-CoA reductase; for IC50: HMG-CoA reductase 17.4 nM final, absorbance 340 nm
T1 sequence (P04035 426-888 limits assumed): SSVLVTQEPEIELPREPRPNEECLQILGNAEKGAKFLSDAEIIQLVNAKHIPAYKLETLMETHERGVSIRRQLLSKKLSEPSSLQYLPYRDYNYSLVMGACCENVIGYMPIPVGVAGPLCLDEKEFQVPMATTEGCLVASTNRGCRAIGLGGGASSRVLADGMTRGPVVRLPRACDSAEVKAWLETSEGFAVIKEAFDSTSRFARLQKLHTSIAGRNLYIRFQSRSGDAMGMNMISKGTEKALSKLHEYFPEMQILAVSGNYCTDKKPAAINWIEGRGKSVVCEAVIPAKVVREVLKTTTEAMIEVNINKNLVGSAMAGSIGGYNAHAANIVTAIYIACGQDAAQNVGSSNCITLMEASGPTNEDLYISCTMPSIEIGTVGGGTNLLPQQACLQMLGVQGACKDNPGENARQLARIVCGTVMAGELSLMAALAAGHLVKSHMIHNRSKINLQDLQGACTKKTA
Protocol: HMG-CoA Reductase Inhibition
A 0.1 M phosphate buffer containing 100 μM […], 330 μM NADPH, 2% DMSO and 1 mg/mL BSA was firstly prepared. Compounds 1 and 4˜11 were added dissolved in phosphate buffer at various concentrations, then added HMG-CoA reductase (the final concentration is 17.4 nM) and mixed for 5 minutes. The absorbance of the solution was measured at 340 nm. The IC50 values were analyzed via nonlinear least-squares using Sigma 10 to determine the HMG-CoA reductase inhibition of compounds.

[2] = system: human adipose stem cells (hADSC); assay: Cytotoxicity MTS assay on human adipose stem cells
Protocol: Statins are known agents that induced stem cells to be osteogenesis.
In a 96-well plate, human adipose stem cells (hADSC) were cultured to an initial culture density of 6×10^3 cells per well in K medium (Keratinocyte-SFM, GIBCO-Invitrogen Corporation). […] The MTS agent was added to the culture medium for 3 hours, then the medium was removed and the cells were washed with PBS (phosphate buffered saline), and 100 μL of DMSO (dimethyl sulfoxide) was added to the wells to promote the dissolution of formazan. The DMSO solution containing formazan was measured using UV spectrophotometer at 490 nm wavelength, and the survival of cells was judged by the value of absorbance.

D1 cells [3] = assay: Induction of mineralization (Alizarin Red S), FIG. 7; format: cell-based, rat
Protocol: Following the tests above, the ability of inducing mineralization of the compounds to D1 cells was tested.
(§1) The D1 cells, purchased from American Type Culture Collection, were plated in 48-well plates at a density of 3×10^4 cells/well. Once confluence was obtained, the cells were cultured in bone medium (BM, prepared with DMEM, 10% FBS, 100 U/mL penicillin, 100 μg/mL streptomycin, […] ascorbic acid, 1% NEAA, 1.5 g sodium bicarbonate) in the presence of compound 1. After 3 days, BM was replaced with an osteogenesis induction medium (OIM prepared with BM, 10^−2 M β-glycerophosphate and 10^−7 M dexamethasone). […] The medium was changed every 2 days. For the quantitative value of mineralization, the cells were washed with PBS triplex and fixed with 10% formalin for 30 minutes at room temperature. Thereafter, the cells were washed with deionized water triplex, and then stained with Alizarin Red S solution ([…], 80 mM, pH 4) for 10 minutes at room temperature. The cells were washed with deionized water triplex and dried overnight at room temperature. The Alizarin Red S was released from the cell matrix by being mixed with 10% acetic acid(aq) for 30 minutes. The concentration of Alizarin Red S was determined by measuring the absorbance at 415 nm.

zebrafish [4] = assay: Bone formation induced by test compounds in zebrafish (calcein staining); format: in vivo; conditions: zebrafish larvae, 0.32 μM, calcein stain, FIG. 9(c)
Protocol: The non-oligopeptide derivative 7 which had the most outstanding overall performance was selected from the above experiments. In the study for increasing the bone mass of zebrafish, when 0.1 or 1 μM of compound 7 were treated, both can promote bone formation in the zebrafish, and the increase range was between 30% and 50% compared with the non-administration group.
Zebrafish larvae at 2 dpf were treated with test compounds (0.32 μM) for 6 days in a 24-well plate. At 7 dpf, the fish were transferred to 6-cm dishes (8 fish/dish) for bone staining using calcein solution. The calcein solution was prepared at 0.2% by dissolving 2 g of calcein powder (Sigma Chemical, St. Louis, Mo.) in 1 liter of deionized water. The immersion time was 10 minutes at 7 dpf. After the immersion, the embryos were rinsed a number of times in fresh water, and then allowed to stand for 10 mins to allow the excess stain diffusion from the larvae tissue. The embryos were then euthanized in tricaine-methanesulfonate (MS 222) and mounted on depression glass slides with methyl-cellulose (3%). […] Each image was taken at 200 mini-seconds, then the fluorescence of the calcein stain images was calculated using NIH Image J (NIH open software with Macbiophotonics plugins). […]

[5] = Combination with HAP monitored by fluorescent microscope; format: physicochemical; conditions: FIG. 6
From the text: If compound 1-F is combined with HAP, it can be monitored using a fluorescent microscope.

D1 cells [6] = assay: Cytotoxicity MTT assay on D1 cells; format: cell-based, rat; conditions: for IC50: Rattus norvegicus, 72 h, MTT, 3 days
Protocol: D1 cell is more sensitive than hADSC cell by drug treatment.
The cytotoxicity of compounds 4˜11 was analyzed using MTT assay. D1 cells were cultured to an initial culture density of 5×10^3 cells per well in a bone medium. The bone medium was a DMEM medium containing 10% Fetal bovine serum (FBS), 100 U/mL penicillin, 100 μg/mL streptomycin, […] ascorbic acid, 1% non-essential amino acids (NEAA) and 1.5 g sodium bicarbonate. After the cells were seeded, the bone medium with compounds 4˜11 respectively was set as the experimental group, the bone medium without compound was set as the blank test group, and all were cultured at 37° C. for 3 days. The MTT agent was added to the culture medium for 3 hours, then the medium was removed and the cells were washed with PBS, and 100 μL of DMSO was added to the wells to promote the dissolution of formazan. The DMSO solution containing formazan was measured using UV spectrophotometer at 595 nm wavelength, and the survival of cells was judged by the value of absorbance.

D1 cells [7] = format: cell-based
Protocol: as §1
The abilities of compounds 4˜11 to induce cell mineralization were evaluated followed the same method above, only remove dexamethasone from the recipe of osteogenesis induction medium.

Solubility comparison = format: physicochemical; conditions: compared with simvastatin
zebrafish [8] = conditions: reported by Fleming; cited from earlier work

## O=C(O)CN(CC(=O)O)Cc1cc2c(cc1O)Oc1cc(O)c(CN(CC(=O)O)CC(=O)O)cc1C21OC(=O)c2ccccc21 [Calcein, reference compound]
Zebrafish [1]
  bone-targeting (fluorescence on the bones): fluorescent staining on the bone can be observed

## CCC(C)(C)C(=O)O[C@H]1C[C@@H](C)C=C2C=C[C@H](C)[C@H](CC[C@@H](O)C[C@@H](O)CC(=O)N[C@@H](CCCCNC(=O)[C@H](CC(=O)O)NC(=O)[C@H](CC(=O)O)NC(=O)[C@H](CC(=O)O)NC(=O)[C@H](CC(=O)O)NC(=O)[C@H](CC(=O)O)NC(=O)[C@H](CC(=O)O)NC(=O)[C@H](CCCCNC(=S)Nc3ccc4c(c3)C(=O)OC43c4ccc(O)cc4Oc4cc(O)ccc43)NC(=O)OCCOCCOCCOCCOCCOCCOCCOCCOCCOCCOCCOC)C(=O)NCC(=O)O)[C@H]21 [Compound 1-F]
Zebrafish [1]
  bone-targeting (fluorescence on the bones): targets the bones successfully
HMG-CoA reductase
  effective inhibitory concentration compared with simvastatin: 500 fold
[2]; cytotoxicity, hADSC
  IC50 compared with simvastatin: 300 fold
D1 cells [3]; 15 μM
  induction of mineralization: can induce mineralization of D1 cells
D1 cells [3]; over 20 μM
  induction of mineralization: can induce mineralization of D1 cells
Zebrafish [4]
  promotion of bone formation compared with the non-administration group (control): up to 50%
[5]
  combination with HAP: combines on the surface of HAP

## CCC(C)(C)C(=O)O[C@H]1C[C@@H](C)C=C2C=C[C@H](C)[C@H](CC[C@@H](O)C[C@@H](O)CC(=O)O)[C@H]21 [Compound 4, simvastatin acid, reference compound]
HMG-CoA reductase
  IC50: 0.263 ± 0.0834 µM
D1 cells [6]
  IC50: 29.4 ± 1.02 µM
D1 cells [7]; 4 μM, FIG. 8(c)
  induction of cell mineralization: can only induce mineralization effectively under a concentration of 4 μM

## CCC(C)(C)C(=O)O[C@H]1C[C@@H](C)C=C2C=C[C@H](C)[C@H](CC[C@@H](O)C[C@@H](O)CC(=O)NCCO)[C@H]21 [Compound 5]
HMG-CoA reductase
  IC50: 1.02 ± 0.0509 µM
D1 cells [6]
  IC50: 117 ± 8.07 µM
D1 cells [7]; 1 μM, Day 9, FIG. 8(a)
  induction of cell mineralization: clearly induced cell mineralization
D1 cells [7]; 1 μM, Day 11, FIG. 8(b)
  induction of cell mineralization: excellent ability to induce cell mineralization

## CCC(C)(C)C(=O)O[C@H]1C[C@@H](C)C=C2C=C[C@H](C)[C@H](CC[C@@H](O)C[C@@H](O)CC(=O)NCCCO)[C@H]21 [Compound 6]
HMG-CoA reductase
  IC50: 1.13 ± 0.0895 µM
D1 cells [6]
  IC50: 161 ± 3.76 µM
D1 cells [7]; 1 μM, Day 11, FIG. 8(b)
  induction of cell mineralization: excellent ability to induce cell mineralization

## CCC(C)(C)C(=O)O[C@H]1C[C@@H](C)C=C2C=C[C@H](C)[C@H](CC[C@@H](O)C[C@@H](O)CC(=O)NCCOCCO)[C@H]21 [Compound 7]
HMG-CoA reductase
  IC50: 0.171 ± 0.0092 µM
Solubility comparison
  solubility: higher than simvastatin
D1 cells [6]
  IC50 compared with simvastatin: 83 fold
  IC50: 269.1 ± 1.04 µM
D1 cells [7]; 1 μM, Day 9, FIG. 8(a)
  induction of cell mineralization: clearly induced cell mineralization
D1 cells [7]; 1 μM, Day 11, FIG. 8(b)
  induction of cell mineralization: excellent ability to induce cell mineralization
D1 cells [7]; 4 μM, FIG. 8(c)
  induction of cell mineralization: obvious ability to induce cell mineralization

## CCC(C)(C)C(=O)O[C@H]1C[C@@H](C)C=C2C=C[C@H](C)[C@H](CC[C@@H](O)C[C@@H](O)CC(=O)NN)[C@H]21 [Compound 8]
HMG-CoA reductase
  IC50: 0.95 ± 0.0801 µM
D1 cells [6]
  IC50: 106 ± 3.3 µM

## CCC(C)(C)C(=O)O[C@H]1C[C@@H](C)C=C2C=C[C@H](C)[C@H](CC[C@@H](O)C[C@@H](O)CC(=O)NCc3ccccn3)[C@H]21 [Compound 9]
HMG-CoA reductase
  effective inhibitory concentration compared with simvastatin: 500 fold
  IC50: > 30 µM
D1 cells [6]
  IC50: 97.3 ± 7.9 µM

## C=CCNC(=O)C[C@H](O)C[C@H](O)CC[C@@H]1[C@@H]2C(=C[C@H](C)C[C@@H]2OC(=O)C(C)(C)CC)C=C[C@@H]1C [Compound 10]
HMG-CoA reductase
  IC50: 26.6 µM
D1 cells [6]
  IC50: 92.2 ± 2.1 µM

## CCCNC(=O)C[C@H](O)C[C@H](O)CC[C@@H]1[C@@H]2C(=C[C@H](C)C[C@@H]2OC(=O)C(C)(C)CC)C=C[C@@H]1C [Compound 11]
HMG-CoA reductase
  IC50: 21.6 µM
D1 cells [6]
  IC50: 94.1 ± 10.6 µM

## CCC(C)(C)C(=O)O[C@H]1C[C@@H](C)C=C2C=C[C@H](C)[C@H](CC[C@@H]3C[C@@H](O)CC(=O)O3)[C@H]21 [Simvastatin, (1S,3R,7S,8S,8aR)-8-{2-[(2R,4R)-4-hydroxy-6-oxotetrahydro-2H-pyran-2-yl]ethyl}-3,7-dimethyl-1,2,3,7,8,8a-hexahydronaphthalen-1-yl2,2-dimethylbutanoate, reference compound]
D1 cells [6]
  IC50: 3.25 ± 0.31 µM
Zebrafish [8]
  bone growth of zebrafish: does not benefit in the bone growth of zebrafish
[2]; Homo sapiens, 72 h
  IC50: 3.25 ± 0.31 µM
Zebrafish [4]
  promotion of bone formation compared with the non-administration group (control): did not promote bone formation
